Experimental findings from BindingDB's records for doi:10.1016/j.bioorg.2014.02.001 (University of Delhi, 2014) are described below.

For experiment [1], the target named is Proto-oncogene tyrosine-protein kinase Src (c-Src). The experiment can be described thus: The kinase reaction was initiated with the incubation of the 2.5 µL of the reaction cocktail (0.7 nM of His6-Src kinase domain in kinase buffer) with 2.5 µL of prediluted compounds (dissolved in 10% DMSO, 4X target concentration) for 10 min at room temperature. The reaction cocktail contained 200 mM HEPES (pH 7.5), 16 mM MgC.

The target of experiment [2] is Mitogen-activated protein kinase 1 (Homo sapiens, UniProt P28482). The experiment can be described thus: EGFR, MAPK and PDK Inhibitory Acitivity Assay. Particulars: pH 7. The method, then:
(§1) EGFR was incubated with 8 mM MOPS (pH 7.0), 0.2 mM EDTA, 10 mM MnCl2, 0.1 mg/mL poly(Glu, Tyr) 4:1. MAPK1 was incubated with 25 mM Tris (pH 7.5), 0.02 mM EGTA, 250 µM substrate peptide (MAPK1-peptide), whereas PDK1 was incubated with 50 mM Tris (pH 7.5), 100 µM […] (PDKtide). The incubation was followed by the addition of 10 mM magnesium acetate and gamma-P33-ATP to each kinase. The kinase reactions were initiated with the addition of Mg:ATP mixture and stopped after 40 min of incubation with the addition of 3% phosphoric acid solution.

In experiment [3] the target is T1, 3-phosphoinositide-dependent protein kinase 1 (Homo sapiens, UniProt O15530).
T1 sequence (O15530 whole entry): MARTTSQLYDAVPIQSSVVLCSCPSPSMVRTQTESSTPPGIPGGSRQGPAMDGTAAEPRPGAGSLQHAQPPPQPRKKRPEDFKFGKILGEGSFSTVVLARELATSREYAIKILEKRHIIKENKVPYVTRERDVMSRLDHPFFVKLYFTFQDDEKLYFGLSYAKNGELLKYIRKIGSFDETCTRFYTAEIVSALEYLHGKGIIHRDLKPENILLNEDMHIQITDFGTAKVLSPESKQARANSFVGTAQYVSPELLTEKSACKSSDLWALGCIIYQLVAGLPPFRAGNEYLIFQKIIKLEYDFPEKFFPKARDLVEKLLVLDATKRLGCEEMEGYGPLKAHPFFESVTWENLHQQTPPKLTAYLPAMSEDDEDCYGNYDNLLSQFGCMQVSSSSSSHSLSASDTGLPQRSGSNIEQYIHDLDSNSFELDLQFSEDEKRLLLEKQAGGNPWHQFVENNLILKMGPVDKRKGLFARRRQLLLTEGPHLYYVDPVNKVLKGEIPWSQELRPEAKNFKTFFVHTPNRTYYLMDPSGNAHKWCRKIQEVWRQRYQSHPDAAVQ
The experiment can be described thus: EGFR, MAPK and PDK Inhibitory Acitivity Assay. Particulars: pH 7. The method, then: as §1

Experiment [4] concerns the target T2, Epidermal growth factor receptor [1-973] (Homo sapiens, UniProt P00533).
T2 construct: 1-973
The experiment can be described thus: EGFR, MAPK and PDK Inhibitory Acitivity Assay. As to conditions: pH 7. The method, then:
as §1

T2 sequence (P00533 1-973): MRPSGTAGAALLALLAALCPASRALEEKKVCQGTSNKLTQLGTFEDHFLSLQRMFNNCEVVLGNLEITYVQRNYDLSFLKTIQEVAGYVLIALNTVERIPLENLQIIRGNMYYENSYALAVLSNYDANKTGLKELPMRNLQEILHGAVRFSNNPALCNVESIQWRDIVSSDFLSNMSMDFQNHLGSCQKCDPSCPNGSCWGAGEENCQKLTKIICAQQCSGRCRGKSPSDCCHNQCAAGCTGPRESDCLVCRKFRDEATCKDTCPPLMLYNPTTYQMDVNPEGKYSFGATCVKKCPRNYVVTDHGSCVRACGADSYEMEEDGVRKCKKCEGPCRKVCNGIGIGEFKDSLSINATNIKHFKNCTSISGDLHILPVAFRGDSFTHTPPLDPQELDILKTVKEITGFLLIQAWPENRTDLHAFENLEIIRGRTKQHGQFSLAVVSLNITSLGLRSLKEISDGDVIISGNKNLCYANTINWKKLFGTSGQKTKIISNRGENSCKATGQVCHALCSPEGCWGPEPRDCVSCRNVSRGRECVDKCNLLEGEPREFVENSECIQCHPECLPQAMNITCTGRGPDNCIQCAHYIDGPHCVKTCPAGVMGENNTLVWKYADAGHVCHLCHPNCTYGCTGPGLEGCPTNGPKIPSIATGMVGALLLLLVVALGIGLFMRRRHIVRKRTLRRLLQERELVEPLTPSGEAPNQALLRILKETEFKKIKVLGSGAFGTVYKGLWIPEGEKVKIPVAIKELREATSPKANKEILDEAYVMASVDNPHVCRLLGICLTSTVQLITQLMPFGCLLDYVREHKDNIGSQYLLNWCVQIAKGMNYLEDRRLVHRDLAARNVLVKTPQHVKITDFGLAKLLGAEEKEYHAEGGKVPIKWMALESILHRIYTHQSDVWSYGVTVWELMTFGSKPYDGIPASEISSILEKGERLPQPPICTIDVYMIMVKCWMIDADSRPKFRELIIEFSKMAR
Sequence of Mitogen-activated protein kinase 1 (P28482 whole entry): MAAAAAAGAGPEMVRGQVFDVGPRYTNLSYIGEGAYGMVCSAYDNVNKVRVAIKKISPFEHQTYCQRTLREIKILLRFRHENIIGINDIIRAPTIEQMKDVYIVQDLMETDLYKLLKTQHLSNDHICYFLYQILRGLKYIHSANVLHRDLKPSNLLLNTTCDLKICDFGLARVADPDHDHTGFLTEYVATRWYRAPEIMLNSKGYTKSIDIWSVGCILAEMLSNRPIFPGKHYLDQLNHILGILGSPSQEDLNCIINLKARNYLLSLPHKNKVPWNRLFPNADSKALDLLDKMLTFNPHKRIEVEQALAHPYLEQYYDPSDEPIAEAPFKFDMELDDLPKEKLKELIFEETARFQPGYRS

Usually IC50 stands for the point on the concentration scale where inhibition reaches its midpoint. Read a low IC50 as higher potency. Take `COc1ccc(O)c(C(=O)c2ccc(=O)n(C3CCCCC3)c2)c1` [1-Cyclohexyl-5-(2-hydroxy-5-methoxybenzoyl)pyridin-2 (1H)-one (42)]: the half-maximal inhibitory concentration (IC50) in experiment [1] was 24.8 µM.
In experiment [1], `O=C(c1ccc(=O)n(C2CCCCC2)c1)c1ccccc1O` [1-Cyclohexyl-5-(2-hydroxybenzoyl)pyridin-2(1H)-one (30)] came in with an IC50 of 25.4 µM.
Turning to `CCCCCCn1cc(C(=O)c2ccc(OC)cc2O)ccc1=O` [1-Hexyl-5-(2-hydroxy-4-methoxybenzoyl)pyridin-2(1H)-one (34)], the IC50 in experiment [1] came out at 34.1 µM.
The compound `CCCCCCn1cc(C(=O)c2cc(OC)ccc2O)ccc1=O` [1-Hexyl-5-(2-hydroxy-5-methoxybenzoyl)pyridin-2(1H)-one (41)] displayed a half-maximal inhibitory concentration (IC50) in experiment [1] of 23.5 µM.
`CCCCCCn1cc(C(=O)c2ccccc2O)ccc1=O` [1-Hexyl-5-(2-hydroxybenzoyl)pyridin-2(1H)-one (28)] gave an IC50 in experiment [1] of 28.1 µM.
Turning to `COc1ccc(C(=O)c2ccc(=O)n(CCN(C)C)c2)c(O)c1` [1-[2-(Dimethylamino)ethyl]-5-(2-hydroxy-4-methoxybenzoyl) pyridin-2(1H)-one (36)], the IC50 in experiment [1] was 12.5 µM; in experiment [2] it was more than 300 µM; in experiment [3] it was more than 300 µM; in experiment [4], more than 300 µM.
With `CN(C)CCn1cc(C(=O)c2ccccc2O)ccc1=O` [1-[2-(Dimethylamino)ethyl]-5-(2-hydroxybenzoyl)pyridin-2(1H)-one (31)], the IC50 in experiment [1] came out at 28.2 µM.
The same measure, in the same setting: the figure for `CCCCCCn1cc(C(=O)c2ccc(O)cc2O)ccc1=O` [5-(2,4-Dihydroxybenzoyl)-1-hexylpyridin-2(1H)-one (32)] is 27.7 µM; for `CCCCCCn1cc(C(=O)c2cc(O)ccc2O)ccc1=O` [5-(2,5-Dihydroxybenzoyl)-1-hexylpyridin-2(1H)-one (39)] it is 22.1 µM.
`CC(C)n1cc(C(=O)c2cc(O)ccc2O)ccc1=O` [5-(2,5-Dihydroxybenzoyl)-1-isopropylpyridin-2(1H)-one (40)] gave a half-maximal inhibitory concentration (IC50) in experiment [1] of 26.1 µM.
On the same count and under the same terms, in the case of `COc1ccc(C(=O)c2ccc(=O)n(CCO)c2)c(O)c1` [5-(2-Hydroxy-4-methoxybenzoyl)-1-(2-hydroxyethyl)pyridin-2(1H)-one (38)] it was 19.9 µM; in that of `COc1ccc(C(=O)c2ccc(=O)n(C(C)C)c2)c(O)c1` [5-(2-Hydroxy-4-methoxybenzoyl)-1-isopropylpyridin-2(1H)-one (35)], 47 µM.
As for `CC(C)n1cc(C(=O)c2ccccc2O)ccc1=O` [5-(2-Hydroxybenzoyl)-1-isopropylpyridin-2(1H)-one (29)], the IC50 in experiment [1] worked out at 21.8 µM.
The same measure, in the same setting: in the case of `O=c1ccc(/C(=N\C2CCCCC2)c2ccccc2O)cn1C1CCCCC1` [(E)-1-Cyclohexyl-5-[(cyclohexylimino)(2-hydroxyphenyl)methyl]pyridin-2(1H)-one (45)] it was 20.1 µM; in that of `CC(C)/N=C(\c1ccc(=O)n(C(C)C)c1)c1ccccc1O` [(E)-5-[(2-Hydroxyphenyl)(isopropylimino)methyl]-1-isopropylpyridin-2(1H)-one (44)], 37.9 µM.
`CC(C)(C)OC(=O)NCCn1cc(C(=O)c2ccc(O)cc2O)ccc1=O` [t-Butyl [2-{5-(2,4-dihydroxybenzoyl)-2-oxopyridin-1(2H)-yl}ethyl]carbamate (33)] returned an IC50 in experiment [1] of 57.8 µM.
As for `COc1ccc(C(=O)c2ccc(=O)n(CCNC(=O)OC(C)(C)C)c2)c(O)c1` [t-Butyl [2-{5-(2-hydroxy-4-methoxybenzoyl)-2-oxopyridin-1(2H)-yl}ethyl]carbamate (37)], half-maximal inhibition in experiment [1] (IC50) was put at 27.6 µM.
Regarding `COc1ccc(O)c(C(=O)c2ccc(=O)n(CCNC(=O)OC(C)(C)C)c2)c1` [t-Butyl [2-{5-(2-hydroxy-5-methoxybenzoyl)-2-oxopyridin-1(2H)-yl}ethyl]carbamate (43)], the IC50 in experiment [1] worked out at 21.9 µM.
